Data taken from ChEMBL document CHEMBL1129259 (J Med Chem, 1996).

target: Melatonin receptor (Gallus gallus, UniProt P49288+P51050+P49285); experiment: In vitro binding affinity against melatonin receptor using 2-[125I]iodomelatonin (0.05 nM) and chicken brain membranes; parameters: species or system Membrane

Compared with `COc1cc2ccccc2c2c1CC(NC(C)=O)CC2` (stereo not drawn), `COc1c2c(cc3ccccc13)CCC(NC(C)=O)C2` (stereo not drawn) is 1.6-fold higher in Ki: 168 nM for the first, 273 nM for the second.

First: COc1ccc2ccc(O)c3c2c1CC(NC(C)=O)C3 (stereo not drawn)
Second: COc1ccc2ccc(OC)c3c2c1CC(NC(C)=O)C3
The Ki of the first is 33-fold higher: 22.8 nM for the first, 0.7 nM for the second.

First: CCC(=O)NC1Cc2cccc3ccc(OC)c(c23)C1 (stereo not drawn)
Second: COc1ccc2cccc3c2c1CC(NC(C)=O)C3 (stereo not drawn)
The Ki of the first is 4.8-fold lower: 6 nM for the first, 28.7 nM for the second.

Compared with `CC(=O)NC1Cc2cccc3cccc(c23)C1`, `CC(=O)NCCc1c[nH]c2ccc(O)cc12` [ACETYLSEROTONIN] is 8.4-fold higher in Ki: 195 nM for the first, 1640 nM for the second.
